Where two headings read alike, the source gives them in different places.
Tests used:
[1] = molecular target: T1, interaction between GMPPNP-bound recombinant K-Ras4B G12C mutant protein and cRAF RAS-binding domain (cRAF-RBD) (Homo sapiens, UniProt P01116, G12C); assay: Inhibitory activity on interaction between KRAS G12C and cRAF (Alpha technology); conditions: Table 2-1
T1 construct: His-tag (N)
Outline: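 Alpha signal measured 1.5 h after adding cRAF-RBD (aa 50-132) and detection reagents to GMPPNP-bound KRAS G12C (aa 1-169) pretreated 1 h at 25° C with compound (pH 7.5 buffer). 0% inhibition = DMSO, 100% = GDP-loaded KRAS; IC50 by curve fit.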

[2] = system: MIA PaCa-2 cells; assay: Growth inhibition activity on KRAS-G12C mutant cell line (CellTiter-Glo 3D); assay type: cell-based, human; conditions: Homo sapiens, MIA PaCa-2, 72 h, MIA PaCa-2, 3-day culture with compound; Table 3-1
Outline: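 IC50 (nM) derived from inhibition of luminescence (CellTiter-Glo 3D) relative to compound-free wells. Cells were seeded in U-bottom plates, grown 1 day, then exposed to compound for 3 days at 37 °C with 0.2% final DMSO.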

[3] = IC50, GMPPNP-bound KRAS G12C incubated with compound 25° C. 1 hour
[4] = GMPPNP-bound KRAS G12C incubated with compound 25° C. 1 hour, read-out: IC50

T1 sequence (P01116 with tags, fused parts or gaps isoform P01116-2 G12C): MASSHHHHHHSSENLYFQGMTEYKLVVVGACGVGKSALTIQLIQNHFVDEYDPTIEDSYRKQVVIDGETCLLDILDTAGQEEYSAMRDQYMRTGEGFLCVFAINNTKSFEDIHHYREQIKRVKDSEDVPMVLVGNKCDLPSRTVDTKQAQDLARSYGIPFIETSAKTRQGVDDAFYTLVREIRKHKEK

Structure (SMILES)	IC50 [1, 3] [nM]	IC50 [2] [nM]	IC50 [1, 4] [nM]
CN1CCn2cc(C(=O)c3cc(F)c(NC(=O)/C=C/CNC(C)(C)CF)c(F)c3)c3cccc(c32)-c2c(C(F)(F)F)cc3c(ncn3C)c21 [Example 81, (E)-N-(4-(8,11-dimethyl-6-(trifluoromethyl)-8,11,12,13-tetrahydro-imidazo[4″,5″:5′,6′]benzo-[1′,2′:5,6][1,4]diazocino-[7,8,1-hi]indole-2-carbon-yl)-2,6-difluorophenyl)-4-((1-fluoro-2-methyl-propan-2-yl)amino)but-2-enamide]	20.8	33.4	
Cc1nc2c3c(c(C(F)(F)F)cc2n1C)-c1cccc2c(C(=O)c4cc(F)c(NC(=O)/C=C/CNC(C)(C)CF)c(F)c4)cn(c12)CCN3C [Example 82, (E)-N-(2,6-difluoro-4-(8,9,11-trimethyl-6-(trifluoromethyl)-8,11,12,13-tetrahydro-imidazo[4″,5″:5′,6′]benzo-[1′,2′:5,6][1,4]diazocino-[7,8,1-hi]indole-2-carbon-yl)phenyl)-4-((1-fluoro-2-methylpropan-2-yl)-amino)but-2-enamide]	24.9	29.9	
Cc1cc2c(nc(C)n2C)c2c1-c1cccc3c(C(=O)c4cc(F)c(NC(=O)/C=C/CNC5CC6(COC6)C5)c(F)c4)cn(c13)CCN2C [Example 84, (E)-4-((2-oxaspiro[3.3]-heptan-6-yl)amino)-N-(2,6-difluoro-4-(6,8,9,11-tetramethyl-8,11,12,13-tetrahydroimidazo[4″,5″: 5′,6′]benzo[1′,2′:5,6]-[1,4]diazocino[7,8,1-hi]-indole-2-carbonyl)phenyl) but-2-enamide]	39.9	49.6	
CC(=O)C(C)(C)NC/C=C/C(=O)Nc1c(F)cc(C(=O)c2cn3c4c(cccc24)-c2c(C)cc4c(nc(C)n4C)c2N(C)CC3)cc1F [Example 85, (E)-N-(2,6-difluoro-4-(6,8,9,11-tetramethyl-8,11,12,13-tetrahydro-imidazo[4″,5″:5′,6′]benzo-[1′,2′:5,6][1,4]diazocino-[7,8,1-hi]indole-2-carbon-yl)phenyl)-4-(2-methyl-3-oxobutan-2-ylamino)but-2-enamide]	61	30.9	
CC(=O)N1CCC(C)(NC/C=C/C(=O)Nc2c(F)cc(C(=O)c3cc4c5c(cccn35)-c3c(C(F)(F)F)cc5c(ncn5C)c3N(C)CC4)cc2F)CC1 [Example 86, (E)-4-((1-acetyl-4-methyl-piperidin-4-yl)amino)-N-(4-(9,12-dimethyl-7-(trifluoromethyl)-9,12,13,14-tetrahydro-imidazo[4″,5″:5′,6′]benzo-[1′,2′:2,3]azocino[4,5,6-hi]indolizine-2-carbonyl)-2,6-difluorophenyl)but-2-enamide]		6.11	22.3
CO[C@H]1CC[C@H](NC/C=C/C(=O)Nc2ccc(C(=O)c3cn4c5c(cccc35)-c3c(C(F)(F)F)cc5c(nc(C)n5C)c3N(C)CC4)nc2)CC1 [Example 88, (E)-4-(((1r,4r)-4-methoxy-cyclohexyl)amino)-N-(6-(8,9,11-trimethyl-6-(trifluoromethyl)-8,11,12,13-tetrahydro-imidazo[4″,5″:5′,6′]benzo-[1′,2′:5,6][1,4]diazocino-[7,8,1-hi]indole-2-carbon-yl)pyridin-3-yl)but-2-enamide]		6.92	39.5
Cc1nc2c3c(c(C(F)(F)F)cc2n1C)-c1cccc2c(C(=O)c4cc(F)c(NC(=O)/C=C/CNC5(C)COC5)c(F)c4)cn(c12)CCO3 [Example 91]	27.2	8.68	
COc1cc2c(nc(C)n2C)c2c1-c1cccn3c(C(=O)c4cc(F)c(NC(=O)/C=C/CNC(C)(C)CF)c(F)c4)cc(c13)CCN2C [Example 93]		51.6	33.6

From patent US20240262842A1, “SMALL MOLECULE INHIBITORS OF KRAS G12C MUTANT” (Merck Sharp & Dohme LLC, priority 2021, published 2024)
